From article PMC9077470 (RSC Advances, 2018) come the findings set out here.

In brackets after ≈: the same amount, converted by molar mass. Entries after “also recorded” stand apart in the source; their conditions may differ.

The nature of data set [1]: Partition coefficients in n-octanol/phosphate buffer (pH 7.4). The following applies: means ± SD, n = 3. In kind it is physicochemical. As to the method: The phosphate buffer and octanol were mutually saturated at 20–22 °C before use. Samples were dissolved in the aqueous phase and the n-octanol/phosphate buffer mixtures were shaken for 24 h to reach a distribution equilibrium. The volumes of each phase were chosen so that the solute concentration in the aqueous phase, before and after distribution, could readily be measured using HPLC method. The partition coefficients (P) were calculated from the following equation: [drawing 1] where Ci and Cw represent the solute concentrations in the aqueous buffer phase before and after distribution, respectively, Vw represents the volume of the aqueous phase, and Vo is the volume of the octanol phase.[16]

The nature of data set [2]: Aqueous solubility (equilibrium, distilled water). In kind it is physicochemical. The conditions noted are these: 25 °C, thermodynamic from solid, 25 ± 2 °C, means ± SD, n = 3, read-out: S (aqueous solubility). As to the method:
The mixtures were placed in an ultrasonic water bath for 10 min and then shaken for 24 h to establish a saturation equilibrium. Upon filtration, the filtrate was diluted with an appropriate amount of water and the mixture was analyzed by HPLC, the concentration of each compound in its saturated solution was calculated.

Data set [3] concerns TNBS-induced experimental colitis. Description: TNBS-induced colitis: body weight, survival rates, overall effect. In kind it is in vivo, mice. The following applies: for body weight of mice / therapeutic effects on the TNBS-induced UC (overall): TNBS colitis mice; for body weight of mice: once daily 5 days, equivalent to 100 mg kg^−1 5-ASA; for therapeutic effects on the TNBS-induced UC (overall): Ols-DB as enema, others i.g.; for ameliorative effects on TNBS-induced colitis (overall), compared with positive control: vs positive control, oral administration. The procedure: Colitis was induced according to the previous study.[18,19] Briefly, after 12 h of fasting, mice were anesthetized with intraperitoneal pentobarbital sodium (35 mg kg^-1) before the induction of colitis. 0.1 mL of 50% (v/v) ethanol contained 2.5% (v/v) TNBS was instilled into the colon 3.5-4 cm from the anus by a gavage needle. The mice were kept in a head-down position for 30 s to prevent leakage of the intracolonic instillation. Mice in the control group received normal saline instead of TNBS solution, a physical mixture of 5-ASA and sodium butyrate was used as the positive control. […] The treatments were given once daily for 5 continuous days starting 24 hours after the induction of colitis. After the induction of colitis, the body weight of each mice was recorded daily, and the curves of weight changes for each group were drawn to evaluate the TNBS-induced colitis. Meanwhile, the death of mice in each group was recorded daily and the final survival rates of mice were calculated.

For `CCCC(=O)OCC(COC(=O)CCC)OC(=O)c1cc(N=Nc2ccc(O)c(C(=O)OC(COC(=O)CCC)COC(=O)CCC)c2)ccc1O` [Ols-DBP], in data set [1], the “P (partition coefficient)” value stood at 2.94 ± 0.37 and the logP at 24 h worked out at 0.47 ± 0.06. The solubility at 24 h in data set [2] was found to be 190 ± 40 mg/mL (≈ 260 mM). Besides, in data set [3], the “body weight of mice” value is “slight weight loss at first and gained gradually from the 2nd day”; the “therapeutic effects on the TNBS-induced UC (overall)” value (“therapeutic effects” for short) is “certain therapeutic effects”; the “ameliorative effects on TNBS-induced colitis (overall), compared with positive control” value is reported as “significantly greater than the positive control”.

Take `CCCC(=O)Oc1ccc(N=Nc2ccc(OC(=O)CCC)c(C(=O)O)c2)cc1C(=O)O` [Ols-DB, 3,3′-azobis(6-hydroxybenzoicacid)dibutyrate]: in data set [1], the “P (partition coefficient)” value amounted to 2.10 ± 0.24 and the logP at 24 h came to 0.32 ± 0.05. Further, the solubility at 24 h in data set [2] was determined as 270 ± 30 mg/mL (≈ 610 mM). In addition, in data set [3], the “body weight of mice” value is “slight weight loss at first and gained gradually from the 2nd day”; the “therapeutic effects” value was “just as effective as 5-ASDB and Ols-DBP; also recorded: certain therapeutic effects”.

For the compound `CCCC(=O)OCC(COC(=O)CCC)OC(=O)c1cc(N)ccc1O` [5-ASDB, 2-(1,3-dibutyroxypropyl)-5-aminosalicylate], in data set [1], the “P (partition coefficient)” value is recorded as 3.81 ± 0.35 and the lipophilicity (logP) at 24 h is 0.58 ± 0.04. For the same compound, in data set [2], the solubility at 24 h came to 80 ± 20 mg/mL (≈ 218 mM). In data set [3], the “body weight of mice” value is “slight weight loss at first and gained gradually from the 2nd day”; the “therapeutic effects” value is “certain therapeutic effects”; the “ameliorative effects on TNBS-induced colitis (overall), compared with positive control” value is “significantly greater than the positive control”.
